Measured values from patent US20240041825A1, “SAROGLITAZAR AND MYRISTIC ACID FOR USE IN THE TREATMENT OF FOCAL SEGMENTAL GLOMERULOSCLEROSIS (FSGS)” (Delta 4 GmbH, priority 2020, published 2024).

Tested on: Adriamycin-induced FSGS in BALB/c mice
Assay: Adriamycin induced nephropathy mouse model of FSGS (UPCR, UACR, histology)
Type: in vivo
Details: Experiment 1, FIG. 5; chow with 25 mg/kg saroglitazar and/or 625 mg/kg myristic acid from day 2
Excerpt: For biological testing of the shortlisted compounds, we chose accepted mouse models of FSGS such as the adriamycin induced nephropathy or miR-193a-overexpressing mice which suffer from FSGS due to suppression of Wilms' tumor 1 (WT1) gene (Gebeshuber et al., 2013). All animal experiments and handling were in accordance with the Austrian law for protection of animals and approved by the animal ethics committee of the Austrian ministry for science and research.
Adriamycin-dependent nephropathy (active compound: doxorubicin) was induced by tail vein injection accepted doses of approx. 9 mg/kg mouse in 10 weeks old BALB/c mice. Control mice were injected with 0.9% saline. At least 6 mice were analyzed per group. Mice were monitored daily for signs of pain, altered movement, or reduced food uptake and sacrificed by cervical dislocation. […]
Urinary albumin levels were assessed by ELISA, urinary total protein and urinary creatinine levels were measured on the Roche Cobas system, using routine laboratory kits. Urinary protein/creatinine (UPCR) ratio and urinary albumin/creatinine ratio (UACR) were assessed at different time points. Weight and physical fitness scores were monitored on a daily basis. […]
Spot urine was collected every week and Creatinine and protein levels were measured.
Urinary albumin was measured by ELISA. […]

With `CCCCCCCCCCCCCC(=O)O` [Myristic acid] the “effect on proteinuria (UPCR) versus control, in words” value was “did not reduce UPCR”.

`CCO[C@@H](Cc1ccc(OCCn2c(C)ccc2-c2ccc(SC)cc2)cc1)C(=O)O` [saroglitazar] was tested, and the “effect on proteinuria (UPCR) versus control, in words” value was “able to ameliorate proteinuria to a certain extent”.
